In US10335449B2, “Rho associated kinase (ROCK) inhibitors and their use in treating disease” (UNIVERSITY OF HOUSTON SYSTEM, priority 2014, dated 2019):
“And” between values parts separate entries of the source, which are not always exact repeats. Equal entries are not always repeated. “Also recorded” adds a separate entry of the source. No end group written: not given here.

Legend:
[1] = target: citron kinase (Homo sapiens, UniProt O14578); details: cited from earlier work
[2] = system: protein kinase A; details: cited from earlier work
[3] = target: T1, ROCK1 catalytic domain (MBP-ROCK1) (Homo sapiens, UniProt Q13464); test: ROCK1 autophosphorylation inhibition by phage-displayed peptides; format: biochemical; details: for ROCK autophosphorylation inhibition: high ATP levels (1 mM)
T1 construct: made in house
T1 sequence (Q13464 76-338 limits assumed, species assumed): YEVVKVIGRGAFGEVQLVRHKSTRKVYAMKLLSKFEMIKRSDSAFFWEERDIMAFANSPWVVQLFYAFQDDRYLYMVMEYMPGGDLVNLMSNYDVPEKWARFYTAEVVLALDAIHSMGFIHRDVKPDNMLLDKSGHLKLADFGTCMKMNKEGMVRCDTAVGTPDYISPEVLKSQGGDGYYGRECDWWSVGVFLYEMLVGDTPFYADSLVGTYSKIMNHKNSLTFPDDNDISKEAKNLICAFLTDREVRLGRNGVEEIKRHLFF
Description: The maltose binding protein fusion protein linked to the ROCK1 kinase domain (MBP-ROCK1) was incubated with a Ph.D-12 phage display library of 12 amino acids in length (New England Biolabs, Inc).
The ROCK1 catalytic domain (MBP-ROCK1) was linked to a maltose binding protein fusion protein and was incubated with a Ph.D-12 phage display library of 12 amino acids in length (New England Biolabs, Inc.).

[4] = system: cellular cytoskeleton; test: Cellular cytoskeleton disruption in cell culture; format: cell-based; details: added to cell culture medium
Excerpt: Peptides25 was synthesized and one of which contained a fusion of the N′ end terminal TAT sequence (TATpeptide25), which allows peptides and proteins easy entry into cells.
Peptides25 was synthesized and an additional synthesis which contained a fusion of the N′ end terminal TAT sequence (TATpeptide25), which allows peptides and proteins easy entry into cells. […] The TAT polypeptide sequence alone was ineffective. At the cellular level, the cell cytoskeleton changed after TATpeptide25 was introduced into cell culture medium as expected, since ROCK is a mediator for cell morphology and cell migration.

[5] = system: cell movement into the wound (ROCK1); test: Wound healing scratch test; format: cell-based; details: for percent of healing (mean): standard scratch test, at least N=5 trials, control mean 17.4
Description: Peptide25 change in perimeter (mean: 15%; p-value: 0.03) was evaluated for 4 separate experiments with each having 3 trials for a total of 12 measurements. These experiments included two controls, one with no treatment the other with only the TAT peptide.
Peptide fragments were chosen based on the information from analysis of critical residues and the candidate sequences Pep25-A AAYSPST (Pep25-A; SEQ ID NO: 62) and ERTYSPS (Pep25-P2; SEQ ID NO: 69) were evaluated again using a wound healing scratch test.

[6] = target: ROCK1 (Homo sapiens, UniProt Q13464); test: Luciferase assay of peptide25 fragments and alanine substitutions; format: biochemical
Sequence of ROCK1 (Q13464 whole entry, species assumed, the tested form may be a part): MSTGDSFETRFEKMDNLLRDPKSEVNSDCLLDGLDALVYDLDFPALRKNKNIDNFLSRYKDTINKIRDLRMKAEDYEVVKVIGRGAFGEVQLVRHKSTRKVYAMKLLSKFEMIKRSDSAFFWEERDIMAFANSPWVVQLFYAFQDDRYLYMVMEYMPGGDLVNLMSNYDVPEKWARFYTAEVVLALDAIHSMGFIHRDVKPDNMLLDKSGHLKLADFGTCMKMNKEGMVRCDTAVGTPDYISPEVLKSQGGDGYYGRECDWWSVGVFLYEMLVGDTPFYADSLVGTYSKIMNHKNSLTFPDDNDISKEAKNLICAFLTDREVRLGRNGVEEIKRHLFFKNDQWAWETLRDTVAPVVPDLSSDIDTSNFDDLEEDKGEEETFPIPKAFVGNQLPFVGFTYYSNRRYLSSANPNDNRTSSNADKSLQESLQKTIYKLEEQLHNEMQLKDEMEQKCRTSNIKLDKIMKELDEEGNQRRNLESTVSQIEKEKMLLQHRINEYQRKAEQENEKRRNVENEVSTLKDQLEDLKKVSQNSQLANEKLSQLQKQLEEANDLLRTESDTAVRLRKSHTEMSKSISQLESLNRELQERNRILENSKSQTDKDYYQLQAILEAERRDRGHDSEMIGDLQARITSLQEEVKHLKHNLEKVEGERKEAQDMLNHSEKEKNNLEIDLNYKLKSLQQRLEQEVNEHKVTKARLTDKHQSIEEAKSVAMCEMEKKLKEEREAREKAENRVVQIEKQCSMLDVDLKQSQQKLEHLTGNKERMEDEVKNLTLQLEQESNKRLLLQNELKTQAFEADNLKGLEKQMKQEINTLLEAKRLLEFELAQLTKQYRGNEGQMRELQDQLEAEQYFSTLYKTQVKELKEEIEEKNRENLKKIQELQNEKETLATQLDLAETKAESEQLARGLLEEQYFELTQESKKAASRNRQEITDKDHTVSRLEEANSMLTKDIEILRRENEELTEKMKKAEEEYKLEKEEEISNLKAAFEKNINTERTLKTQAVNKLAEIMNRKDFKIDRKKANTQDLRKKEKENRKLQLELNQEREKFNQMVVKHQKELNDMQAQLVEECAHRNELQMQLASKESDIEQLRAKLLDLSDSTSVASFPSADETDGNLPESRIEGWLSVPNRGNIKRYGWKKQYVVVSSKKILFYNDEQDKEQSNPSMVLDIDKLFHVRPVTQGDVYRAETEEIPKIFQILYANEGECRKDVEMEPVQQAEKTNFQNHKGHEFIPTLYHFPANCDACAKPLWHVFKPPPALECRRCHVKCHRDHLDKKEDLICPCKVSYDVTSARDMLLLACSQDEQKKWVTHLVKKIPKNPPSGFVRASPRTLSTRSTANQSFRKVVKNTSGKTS
Description: (Right panel) Likewise the alanine substitution at positions Y4, S5, P6, and S7 all reduced the effectiveness of peptide25.
The peptide25 was divided into fragments; ERTYS (F1; SEQ ID NO: 3), YSPST (F2; SEQ ID NO: 4), and STAVRS (F3; SEQ ID NO: 2). […] Additionally, an alanine substitution was performed at each position to look for amino acids that putatively might be important to binding and when replaced reduced the response.

[7] = system: ROCK; test: ROCK and S6 substrate reaction followed by mass spectrum; format: biochemical
Sequence of ROCK (Q13464 6-415 limits assumed): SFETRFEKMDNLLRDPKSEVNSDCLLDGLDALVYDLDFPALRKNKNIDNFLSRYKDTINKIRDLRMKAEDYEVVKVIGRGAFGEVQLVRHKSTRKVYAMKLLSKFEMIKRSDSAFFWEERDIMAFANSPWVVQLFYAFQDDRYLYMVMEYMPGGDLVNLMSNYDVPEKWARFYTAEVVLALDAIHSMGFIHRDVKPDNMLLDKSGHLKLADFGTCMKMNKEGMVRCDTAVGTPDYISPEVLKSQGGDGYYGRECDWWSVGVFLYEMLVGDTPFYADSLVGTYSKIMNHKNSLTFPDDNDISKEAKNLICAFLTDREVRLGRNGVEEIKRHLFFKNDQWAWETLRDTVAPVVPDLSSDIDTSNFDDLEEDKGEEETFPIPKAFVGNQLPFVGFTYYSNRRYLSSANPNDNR
Description: FIG. 10—(Left panel) Mass spectrum, two peaks labeled as S6 and pS6 were non-phosphorylated and phosphorylated S6 from ROCK reaction mixture. Following the decreasing concentration of Pep25-P2, the phosphorylated peak pS6 was increasing. (Right panel) S6 conversion ratios were calculated by phosphorylated peak area divided by the sum of phosphorylated and non-phosphorylated peaks' areas.
To determine its inhibition at substrate conversion, different concentrations of Pep25-P2 was added to a ROCK and S6 (substrate) reaction mixture. In MS data, peaks representing phosphorylated and non-phosphorylated S6 substrates were then identified (FIG. 10).

[8] = system: aortic rings contracted with U46619; test: Aortic ring contractility assay (ring bath, U46619); parameters: species or system mice
Description: Channel evaluation of concentrations 150, 200, 300, 100, 250, and 50 μM. Channel 7 (last graph) is the control.
Aortas were collected from adult mice, removed the surrounding fat tissues and installed the freshly cut rings in 2 mm sections on the isometric transducer apparatus. After adjusting the rings tension through series of contraction and relaxation, the rings were constricted 3 times with the 40 mM KCl to achieve consistent contraction. In order to find the effective contraction inducing dose of U46619, following the relaxation of the rings after the KCl contraction, the rings were subjected to contraction by adding different doses of U46619, a vasoconstrictor. 1-3 nM U46619 was chosen do the further experiments. […] Second dose of U46619 was applied to contract the ring. The affection was measured by the difference of the highest response of U46619 with and without Pep25-P2. […] One ring had 26% decreasing, the other had 40% decreasing.

[9] = target: ROCK2 (Homo sapiens, UniProt O75116); test: Surface Plasmon Resonance binding (BiaCore); details: SPR, data not shown
Excerpt: FIG. 6—Determination of binding affinity of TATpeptide25. Proteins MBP, ROCK2, ROCK1-553. ROCK1-415 Were immobilized on CM-5 chip and peptide binding affinity was monitored by BiaCore system. Peptide TAT was used as control to monitored non-specific binding.
Surface Plasmon Resonance (SPR) was used to measure peptide25 binding efficiency with ROCK.

Sequence of citron kinase (O14578 whole entry): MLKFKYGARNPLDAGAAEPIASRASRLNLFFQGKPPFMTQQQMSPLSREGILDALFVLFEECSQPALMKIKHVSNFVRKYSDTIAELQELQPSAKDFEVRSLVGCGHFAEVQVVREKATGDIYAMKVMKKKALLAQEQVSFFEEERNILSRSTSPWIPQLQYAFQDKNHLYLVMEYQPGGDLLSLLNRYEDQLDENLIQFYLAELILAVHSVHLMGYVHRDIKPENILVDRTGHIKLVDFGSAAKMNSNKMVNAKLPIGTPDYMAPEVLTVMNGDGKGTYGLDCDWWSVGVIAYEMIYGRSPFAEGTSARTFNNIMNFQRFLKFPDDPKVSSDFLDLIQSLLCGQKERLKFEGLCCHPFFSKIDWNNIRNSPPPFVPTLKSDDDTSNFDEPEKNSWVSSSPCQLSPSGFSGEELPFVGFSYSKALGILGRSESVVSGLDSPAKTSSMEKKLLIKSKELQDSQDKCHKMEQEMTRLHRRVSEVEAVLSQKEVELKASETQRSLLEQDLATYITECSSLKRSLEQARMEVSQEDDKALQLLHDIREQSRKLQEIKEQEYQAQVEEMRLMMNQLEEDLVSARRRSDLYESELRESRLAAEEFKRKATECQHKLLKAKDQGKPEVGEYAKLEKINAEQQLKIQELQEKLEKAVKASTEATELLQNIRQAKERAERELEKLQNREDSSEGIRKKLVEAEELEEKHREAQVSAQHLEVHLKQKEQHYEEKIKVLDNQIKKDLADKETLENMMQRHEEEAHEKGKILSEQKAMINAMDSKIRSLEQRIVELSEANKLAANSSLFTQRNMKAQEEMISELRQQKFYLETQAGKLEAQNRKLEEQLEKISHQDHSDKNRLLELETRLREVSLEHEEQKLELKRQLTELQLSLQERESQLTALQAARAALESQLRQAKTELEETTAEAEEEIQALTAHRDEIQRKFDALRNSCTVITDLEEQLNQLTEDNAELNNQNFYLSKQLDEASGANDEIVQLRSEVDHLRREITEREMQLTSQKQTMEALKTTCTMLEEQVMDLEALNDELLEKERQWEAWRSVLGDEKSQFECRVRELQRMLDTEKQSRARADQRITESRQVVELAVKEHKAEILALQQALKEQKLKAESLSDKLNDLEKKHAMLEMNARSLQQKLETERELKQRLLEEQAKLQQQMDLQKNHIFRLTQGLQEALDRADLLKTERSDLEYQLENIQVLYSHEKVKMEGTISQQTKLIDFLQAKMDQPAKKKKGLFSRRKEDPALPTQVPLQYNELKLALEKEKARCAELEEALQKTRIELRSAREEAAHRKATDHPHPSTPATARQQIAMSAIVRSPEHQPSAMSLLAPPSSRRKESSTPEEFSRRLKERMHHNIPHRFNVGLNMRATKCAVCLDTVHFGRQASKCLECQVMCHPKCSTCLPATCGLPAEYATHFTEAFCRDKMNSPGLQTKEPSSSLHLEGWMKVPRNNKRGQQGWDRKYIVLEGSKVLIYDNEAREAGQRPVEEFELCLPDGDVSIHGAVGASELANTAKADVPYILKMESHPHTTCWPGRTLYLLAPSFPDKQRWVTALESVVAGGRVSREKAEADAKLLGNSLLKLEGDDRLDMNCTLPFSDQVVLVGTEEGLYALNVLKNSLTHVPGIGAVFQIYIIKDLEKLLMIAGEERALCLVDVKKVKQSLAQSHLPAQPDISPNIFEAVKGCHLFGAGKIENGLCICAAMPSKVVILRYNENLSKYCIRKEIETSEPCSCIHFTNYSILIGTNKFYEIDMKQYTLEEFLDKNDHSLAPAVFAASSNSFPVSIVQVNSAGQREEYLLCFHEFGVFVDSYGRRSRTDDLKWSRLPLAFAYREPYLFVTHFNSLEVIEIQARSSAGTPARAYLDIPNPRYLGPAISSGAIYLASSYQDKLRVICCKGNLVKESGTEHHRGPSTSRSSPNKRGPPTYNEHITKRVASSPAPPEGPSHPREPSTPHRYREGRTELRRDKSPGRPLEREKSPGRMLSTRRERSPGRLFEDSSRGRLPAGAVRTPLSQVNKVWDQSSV

O=S(=O)(c1cccc2cnccc12)N1CCCNCC1 [Fusadil]
inhibition of citron kinase [1]: also inhibit | inhibition of protein kinase A [2]: also inhibit

C[C@@H](N)[C@H]1CC[C@H](C(=O)Nc2ccncc2)CC1 [Y27632]
ROCK autophosphorylation inhibition [3]: blocked Y27632 inhibitory activity | inhibition of citron kinase [1]: also inhibit | effect on cellular cytoskeleton [4]: melted cytoskeleton | inhibition of protein kinase A [2]: also inhibit

AAYSPST [Pep25-A]
percent of healing (mean) [5]: 15.1%

ERTYS [F1]
inhibitory activity measured by luciferase assay [6]: retained its activity

ERTYSPS [Pep25-P2]
wound healing / ROCK1 inhibition in scratch test [5]: inhibited ROCK1 more effectively; also recorded: inhibited wound healing | effective dose from dose curve ([5]; scratch test dose response): 40 µM | percent of healing (mean) [5]: 13.1% | phosphorylation of substrate S6 by ROCK (conversion ratio) ([7]; different concentrations of peptide in ROCK and S6 reaction mixture): repressed the phosphorylation of substrate S6 by ROCK | phosphorylation of the peptide by ROCK ([7]; mass spectrum): couldn't be phosphorylated by ROCK | effect on cellular cytoskeleton [4]: disrupted actin exoskeleton formation | suppression of U46619 contractility ([8]; 50-300 μM, preincubation 20 min): showed suppression of contractility of U46619; also recorded: dose dependant response | decrease of highest U46619 contraction response ([8]; 200 and 300 μM preincubated 10 min, one ring each, 1-3 nM U46619): 26% and 40%

ERTYSPSTAVRS [peptide25]
change in perimeter at the intersection of the scratch (mean) ([5]; 4 separate experiments, 3 trials each, 12 measurements, p-value 0.03): 15% | ROCK autophosphorylation inhibition [3]: blocked ROCK autophosphorylation | ROCK1 activity ([3]; in the presence of mM ATP): blocked ROCK1 activity | autophosphorylated inhibition ([3]; phage display candidates): exhibited autophosphorylated inhibition | binding with ROCK1 as compared to ROCK2 [9]: demonstrated some difference

STAVRS [F3]
inhibitory activity measured by luciferase assay [6]: lost effectively; also recorded: did not confer an inhibitory response

TATpeptide25: peptide25 with a fusion of the N′ end terminal TAT sequence (ERTYSPSTAVRS; also: N-terminal TAT sequence fusion, not in given chain)
effect on cellular cytoskeleton [4]: disassociated or “melted” cellular cytoskeleton | effect on cellular cytoskeleton ([4]; listed as TAT-end-labeled peptide25): melted cytoskeleton

YSPST [F2]
inhibitory activity measured by luciferase assay [6]: retained its activity
